Experimental data from ChEMBL document CHEMBL4507262, “Data for DCP probe A-1596586” (2021).

Columns and labels:
[1] = target: MAO-A (amine oxidase [flavin-containing] A) (Rattus norvegicus, UniProt P21396); assay: MAO-A Eurofins-Cerep binding assay; set-up: incubation time 60 min, incubation temperature 37°C, ligand concentration 10 nM; details: rat cerebral cortex, probe [3H]Ro 41-1049 (10 nM), compound concentration 10 uM, read-out: % Inhibition of Control Specific Binding (Mean n=2)
[2] = target: Prostaglandin E2 receptor EP2 subtype (Homo sapiens) (UniProt P43116); assay: EP2 (h) Eurofins-Cerep binding assay; set-up: ligand concentration 3 nM; details: filed as agonist, Compound concentration 10.0 uM
[3] = target: 5-hydroxytryptamine receptor 7 (Homo sapiens) (UniProt P34969); assay: 5-HT7 (h) Eurofins-Cerep binding assay; set-up: ligand concentration 4 nM; details: filed as agonist, Compound concentration 10.0 uM
[4] = target: L-type Ca2+ channel (diltiazem site, benzothiazepines) (Rattus norvegicus, UniProt P22002+P27732+Q02485); assay: Ca2+ channel (L, diltiazem site) (benzothiazepines) Eurofins-Cerep binding assay; type: protein assay; set-up: incubation time 120 min, incubation temperature RT, ligand concentration 15 nM; details: rat cerebral cortex, probe [3H]diltiazem (15 nM), compound concentration 10 uM, read-out: % Inhibition of Control Specific Binding (Mean n=2)
[5] = target: Sodium-dependent noradrenaline transporter (Homo sapiens) (UniProt P23975); assay: norepinephrine transporter (h) Eurofins-Cerep binding assay; set-up: ligand concentration 1 nM; details: filed as antagonist, Compound concentration 10.0 uM
Sequence of Sodium-dependent noradrenaline transporter (Homo sapiens) (P23975 whole entry): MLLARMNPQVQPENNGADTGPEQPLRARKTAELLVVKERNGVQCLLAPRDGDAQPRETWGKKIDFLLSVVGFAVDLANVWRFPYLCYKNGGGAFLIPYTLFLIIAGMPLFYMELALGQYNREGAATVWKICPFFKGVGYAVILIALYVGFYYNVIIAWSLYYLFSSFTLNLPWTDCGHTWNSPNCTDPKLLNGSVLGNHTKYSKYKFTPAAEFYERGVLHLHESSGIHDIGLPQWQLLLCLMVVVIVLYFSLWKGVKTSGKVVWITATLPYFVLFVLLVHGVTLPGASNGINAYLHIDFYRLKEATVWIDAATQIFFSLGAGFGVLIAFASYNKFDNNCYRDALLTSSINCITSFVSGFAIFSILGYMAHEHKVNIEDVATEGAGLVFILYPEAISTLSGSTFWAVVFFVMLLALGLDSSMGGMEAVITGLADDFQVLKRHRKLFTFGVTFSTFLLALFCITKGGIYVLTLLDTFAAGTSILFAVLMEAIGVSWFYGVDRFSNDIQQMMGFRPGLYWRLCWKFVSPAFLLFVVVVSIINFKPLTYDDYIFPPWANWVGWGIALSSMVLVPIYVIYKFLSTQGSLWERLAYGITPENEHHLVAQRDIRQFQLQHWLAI

[6] = target: Sodium-dependent serotonin transporter (Homo sapiens) (UniProt P31645); assay: 5-HT transporter (h) Eurofins-Cerep binding assay; set-up: ligand concentration 2 nM; details: filed as antagonist, Compound concentration 10.0 uM
Sequence of Sodium-dependent serotonin transporter (Homo sapiens) (P31645 whole entry, looked up): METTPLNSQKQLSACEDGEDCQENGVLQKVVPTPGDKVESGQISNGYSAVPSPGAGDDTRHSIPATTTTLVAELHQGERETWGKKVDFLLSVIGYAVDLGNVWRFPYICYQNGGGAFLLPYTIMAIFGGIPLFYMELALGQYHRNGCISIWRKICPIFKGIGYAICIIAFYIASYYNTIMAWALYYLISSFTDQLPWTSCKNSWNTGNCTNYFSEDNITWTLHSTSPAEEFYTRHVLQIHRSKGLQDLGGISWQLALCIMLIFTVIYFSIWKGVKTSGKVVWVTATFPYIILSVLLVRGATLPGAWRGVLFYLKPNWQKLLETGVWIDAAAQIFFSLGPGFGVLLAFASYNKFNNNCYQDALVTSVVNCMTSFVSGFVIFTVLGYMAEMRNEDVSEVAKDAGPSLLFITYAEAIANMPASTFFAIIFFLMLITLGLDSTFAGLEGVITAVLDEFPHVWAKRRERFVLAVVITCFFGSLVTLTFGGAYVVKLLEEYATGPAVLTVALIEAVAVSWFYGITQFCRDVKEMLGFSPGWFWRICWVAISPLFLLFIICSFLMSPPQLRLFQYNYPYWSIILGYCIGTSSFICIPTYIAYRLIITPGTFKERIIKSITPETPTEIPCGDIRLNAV

[7] = target: Atypical kinase COQ8B, mitochondrial (Homo sapiens) (UniProt Q96D53); details: Compound concentration 1000.0 nM
[8] = target: RAC-gamma serine/threonine-protein kinase (Homo sapiens) (UniProt Q9Y243); details: Compound concentration 1000.0 nM
[9] = target: ALK tyrosine kinase receptor (Homo sapiens) (UniProt Q9UM73); details: Compound concentration 1000.0 nM
Sequence of ALK tyrosine kinase receptor (Homo sapiens) (Q9UM73 19-1620 limits assumed): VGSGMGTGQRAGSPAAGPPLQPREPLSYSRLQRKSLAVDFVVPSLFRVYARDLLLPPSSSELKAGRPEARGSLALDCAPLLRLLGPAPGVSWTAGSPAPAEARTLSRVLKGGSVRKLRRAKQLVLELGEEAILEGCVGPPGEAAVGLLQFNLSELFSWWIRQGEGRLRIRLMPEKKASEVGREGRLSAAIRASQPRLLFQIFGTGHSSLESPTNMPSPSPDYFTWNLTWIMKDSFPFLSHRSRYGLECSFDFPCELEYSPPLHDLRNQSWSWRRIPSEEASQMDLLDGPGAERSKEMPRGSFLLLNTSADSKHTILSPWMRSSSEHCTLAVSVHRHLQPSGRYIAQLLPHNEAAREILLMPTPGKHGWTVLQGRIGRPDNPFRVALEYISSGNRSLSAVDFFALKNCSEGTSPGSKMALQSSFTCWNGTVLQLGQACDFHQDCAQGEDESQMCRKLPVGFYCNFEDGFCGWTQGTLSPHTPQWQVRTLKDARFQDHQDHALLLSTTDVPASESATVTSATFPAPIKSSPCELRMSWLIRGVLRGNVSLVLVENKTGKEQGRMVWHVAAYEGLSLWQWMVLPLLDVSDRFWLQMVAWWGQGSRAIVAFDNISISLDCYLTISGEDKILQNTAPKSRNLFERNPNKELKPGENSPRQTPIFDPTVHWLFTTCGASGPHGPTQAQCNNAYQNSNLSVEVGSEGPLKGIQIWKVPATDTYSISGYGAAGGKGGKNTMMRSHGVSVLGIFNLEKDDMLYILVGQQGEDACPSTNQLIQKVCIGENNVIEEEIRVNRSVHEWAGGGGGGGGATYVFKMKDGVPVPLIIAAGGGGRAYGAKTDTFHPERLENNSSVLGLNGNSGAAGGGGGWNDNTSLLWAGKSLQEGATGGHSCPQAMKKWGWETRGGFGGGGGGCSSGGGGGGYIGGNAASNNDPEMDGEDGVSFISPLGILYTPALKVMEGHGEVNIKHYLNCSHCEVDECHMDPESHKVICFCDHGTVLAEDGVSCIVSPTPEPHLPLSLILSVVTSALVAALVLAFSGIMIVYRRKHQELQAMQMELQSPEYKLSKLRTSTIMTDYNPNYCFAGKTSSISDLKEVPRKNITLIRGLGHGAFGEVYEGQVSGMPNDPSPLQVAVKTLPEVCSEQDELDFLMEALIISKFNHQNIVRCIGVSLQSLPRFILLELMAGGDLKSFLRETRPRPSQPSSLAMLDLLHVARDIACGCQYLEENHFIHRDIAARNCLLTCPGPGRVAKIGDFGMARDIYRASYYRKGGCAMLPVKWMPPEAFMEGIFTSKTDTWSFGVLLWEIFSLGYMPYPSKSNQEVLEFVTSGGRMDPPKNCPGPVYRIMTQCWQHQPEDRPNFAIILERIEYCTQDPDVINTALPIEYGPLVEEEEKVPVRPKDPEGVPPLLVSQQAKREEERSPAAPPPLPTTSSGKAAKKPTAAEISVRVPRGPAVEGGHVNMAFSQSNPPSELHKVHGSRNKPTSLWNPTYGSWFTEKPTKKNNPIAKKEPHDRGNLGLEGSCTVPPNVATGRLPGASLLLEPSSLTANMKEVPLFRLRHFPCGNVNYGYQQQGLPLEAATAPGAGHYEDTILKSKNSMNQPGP

[10] = target: Bone morphogenetic protein receptor type-2 (Homo sapiens) (UniProt Q13873); details: Compound concentration 1000.0 nM
[11] = target: Calcium/calmodulin-dependent protein kinase type 1G (Homo sapiens) (UniProt Q96NX5); details: Compound concentration 1000.0 nM
[12] = target: Calcium/calmodulin-dependent protein kinase type II subunit delta (Homo sapiens) (UniProt Q13557); details: Compound concentration 1000.0 nM
[13] = target: Cyclin-dependent kinase 4 (Homo sapiens) (UniProt P11802); details: Compound concentration 1000.0 nM
Sequence of Cyclin-dependent kinase 4 (Homo sapiens) (P11802 whole entry): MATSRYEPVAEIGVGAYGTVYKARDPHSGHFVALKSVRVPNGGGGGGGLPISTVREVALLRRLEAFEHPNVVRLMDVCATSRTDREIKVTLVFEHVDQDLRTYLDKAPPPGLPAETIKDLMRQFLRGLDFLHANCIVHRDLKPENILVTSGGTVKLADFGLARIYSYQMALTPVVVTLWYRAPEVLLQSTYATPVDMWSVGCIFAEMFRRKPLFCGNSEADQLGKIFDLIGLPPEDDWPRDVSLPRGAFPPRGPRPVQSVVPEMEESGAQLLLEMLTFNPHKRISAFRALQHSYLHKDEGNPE

[14] = target: Cyclin-dependent kinase-like 1 (Homo sapiens) (UniProt Q00532); details: Compound concentration 1000.0 nM
[15] = target: Citron Rho-interacting kinase (Homo sapiens) (UniProt O14578); details: Compound concentration 1000.0 nM
[16] = target: Tyrosine-protein kinase CSK (Homo sapiens) (UniProt P41240); details: Compound concentration 1000.0 nM
Sequence of Tyrosine-protein kinase CSK (Homo sapiens) (P41240 2-450 limits assumed): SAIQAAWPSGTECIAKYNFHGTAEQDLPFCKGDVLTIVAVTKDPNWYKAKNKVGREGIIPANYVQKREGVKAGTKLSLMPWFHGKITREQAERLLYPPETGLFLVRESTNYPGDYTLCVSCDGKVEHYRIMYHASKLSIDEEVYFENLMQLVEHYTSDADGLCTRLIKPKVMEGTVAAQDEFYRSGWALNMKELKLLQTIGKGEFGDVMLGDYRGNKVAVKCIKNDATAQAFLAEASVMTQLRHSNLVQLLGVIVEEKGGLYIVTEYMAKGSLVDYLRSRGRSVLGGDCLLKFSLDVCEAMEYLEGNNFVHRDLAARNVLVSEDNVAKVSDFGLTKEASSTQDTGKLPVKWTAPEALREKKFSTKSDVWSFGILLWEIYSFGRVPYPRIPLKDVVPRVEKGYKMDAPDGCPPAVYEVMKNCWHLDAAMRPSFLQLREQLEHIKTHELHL

[17] = target: Ephrin type-A receptor 1 (Homo sapiens) (UniProt P21709); details: Compound concentration 1000.0 nM
[18] = target: Ephrin type-A receptor 4 (Homo sapiens) (UniProt P54764); details: Compound concentration 1000.0 nM
[19] = target: Ephrin type-A receptor 8 (Homo sapiens) (UniProt P29322); details: Compound concentration 1000.0 nM
[20] = target: Fibroblast growth factor receptor 3 (Homo sapiens) (UniProt P22607); details: Compound concentration 1000.0 nM
[21] = target: G protein-coupled receptor kinase 4 (Homo sapiens) (UniProt P32298); details: Compound concentration 1000.0 nM
[22] = target: Hormonally up-regulated neu tumor-associated kinase (Homo sapiens) (UniProt P57058); details: Compound concentration 1000.0 nM
[23] = target: LIM domain kinase 1 (Homo sapiens) (UniProt P53667); details: Compound concentration 1000.0 nM
Sequence of LIM domain kinase 1 (Homo sapiens) (P53667 whole entry, looked up, the tested form may be a part): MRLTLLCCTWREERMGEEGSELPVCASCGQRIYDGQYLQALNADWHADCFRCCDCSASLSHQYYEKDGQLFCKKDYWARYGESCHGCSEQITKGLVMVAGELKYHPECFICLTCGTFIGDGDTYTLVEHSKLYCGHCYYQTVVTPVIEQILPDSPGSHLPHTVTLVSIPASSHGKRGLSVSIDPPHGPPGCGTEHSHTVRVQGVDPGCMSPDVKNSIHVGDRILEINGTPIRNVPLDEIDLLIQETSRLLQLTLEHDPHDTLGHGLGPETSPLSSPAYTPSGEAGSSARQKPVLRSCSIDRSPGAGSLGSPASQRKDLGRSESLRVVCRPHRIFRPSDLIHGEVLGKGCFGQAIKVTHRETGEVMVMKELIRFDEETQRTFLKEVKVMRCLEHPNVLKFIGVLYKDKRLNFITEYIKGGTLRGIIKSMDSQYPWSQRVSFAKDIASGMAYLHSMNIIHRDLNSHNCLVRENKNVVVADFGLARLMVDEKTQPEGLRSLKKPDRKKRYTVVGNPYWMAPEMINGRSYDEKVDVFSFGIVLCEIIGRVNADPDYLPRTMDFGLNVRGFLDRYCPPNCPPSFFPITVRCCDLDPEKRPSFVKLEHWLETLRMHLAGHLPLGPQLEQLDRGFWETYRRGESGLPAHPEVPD

[24] = target: Misshapen-like kinase 1 (Homo sapiens) (UniProt Q8N4C8); details: Compound concentration 1000.0 nM
[25] = target: MAP kinase-interacting serine/threonine-protein kinase 2 (Homo sapiens) (UniProt Q9HBH9); details: Compound concentration 1000.0 nM
Sequence of MAP kinase-interacting serine/threonine-protein kinase 2 (Homo sapiens) (Q9HBH9 whole entry, looked up): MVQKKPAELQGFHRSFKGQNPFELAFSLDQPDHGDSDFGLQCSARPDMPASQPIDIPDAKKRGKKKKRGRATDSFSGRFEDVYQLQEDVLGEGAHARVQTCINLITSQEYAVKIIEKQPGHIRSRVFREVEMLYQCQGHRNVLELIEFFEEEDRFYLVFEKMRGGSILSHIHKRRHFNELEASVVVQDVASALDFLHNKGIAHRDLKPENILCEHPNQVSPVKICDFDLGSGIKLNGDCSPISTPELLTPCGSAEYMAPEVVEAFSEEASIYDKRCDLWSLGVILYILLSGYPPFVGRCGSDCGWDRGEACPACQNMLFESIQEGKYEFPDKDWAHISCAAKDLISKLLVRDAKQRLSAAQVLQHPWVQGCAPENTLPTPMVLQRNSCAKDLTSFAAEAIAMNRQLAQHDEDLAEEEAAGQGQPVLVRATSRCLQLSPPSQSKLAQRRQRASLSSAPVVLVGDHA

[26] = target: Serine/threonine-protein kinase 26 (Homo sapiens) (UniProt Q9P289); details: Compound concentration 1000.0 nM
[27] = target: Myosin light chain kinase family member 4 (Homo sapiens) (UniProt Q86YV6); details: Compound concentration 1000.0 nM
[28] = target: Myosin-IIIb (Homo sapiens) (UniProt Q8WXR4); details: Compound concentration 1000.0 nM
[29] = target: Serine/threonine-protein kinase Nek6 (Homo sapiens) (UniProt Q9HC98); details: Compound concentration 1000.0 nM
[30] = target: Phosphorylase b kinase regulatory subunit alpha, liver isoform (Homo sapiens) (UniProt P46019); details: Compound concentration 1000.0 nM
[31] = target: 1-phosphatidylinositol 3-phosphate 5-kinase (Homo sapiens) (UniProt Q9Y2I7); details: Compound concentration 1000.0 nM
[32] = target: Serine/threonine-protein kinase pim-2 (Homo sapiens) (UniProt Q9P1W9); details: Compound concentration 1000.0 nM
[33] = target: Interferon-induced, double-stranded RNA-activated protein kinase (Homo sapiens) (UniProt P19525); details: Compound concentration 1000.0 nM
[34] = target: Serine/threonine-protein kinase RIO3 (Homo sapiens) (UniProt O14730); details: Compound concentration 1000.0 nM
[35] = target: Rho-associated protein kinase 2 (Homo sapiens) (UniProt O75116); details: Compound concentration 1000.0 nM
[36] = target: Ribosomal protein S6 kinase beta-1 (Homo sapiens) (UniProt P23443); details: Compound concentration 1000.0 nM
[37] = target: Serine/threonine-protein kinase Sgk1 (Homo sapiens) (UniProt O00141); details: Compound concentration 1000.0 nM
[38] = target: Tyrosine-protein kinase Srms (Homo sapiens) (UniProt Q9H3Y6); details: Compound concentration 1000.0 nM
[39] = target: Dual specificity testis-specific protein kinase 1 (Homo sapiens) (UniProt Q15569); details: Compound concentration 1000.0 nM
[40] = target: Angiopoietin-1 receptor (Homo sapiens) (UniProt Q02763); details: Compound concentration 1000.0 nM
[41] = target: Testis-specific serine/threonine-protein kinase 3 (Homo sapiens) (UniProt Q96PN8); details: Compound concentration 1000.0 nM
Sequence of Testis-specific serine/threonine-protein kinase 3 (Homo sapiens) (Q96PN8 whole entry): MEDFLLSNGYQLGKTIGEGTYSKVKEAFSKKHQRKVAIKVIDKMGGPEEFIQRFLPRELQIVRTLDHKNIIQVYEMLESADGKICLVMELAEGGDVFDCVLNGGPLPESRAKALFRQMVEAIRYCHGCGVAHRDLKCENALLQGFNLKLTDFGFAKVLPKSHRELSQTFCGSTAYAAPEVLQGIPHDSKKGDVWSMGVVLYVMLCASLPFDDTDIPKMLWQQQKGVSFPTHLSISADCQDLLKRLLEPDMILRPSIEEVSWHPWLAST

[42] = target: Serine/threonine-protein kinase 32B (Homo sapiens) (UniProt Q9NY57); details: Compound concentration 1000.0 nM
[43] = target: 5-hydroxytryptamine receptor 1D (Homo sapiens) (UniProt P28221); details: Compound concentration 10.0 uM

COc1ccc2c(c1)O[C@@H](c1ccc(OC)c(OC)c1)C[C@H]2NC(=O)C1(c2ccc3c(c2)OC(F)(F)O3)CC1 [A-1596586]
11.7%: % Inhibition of Control Specific Binding (Mean n=2) [6]
23.5%: % Inhibition of Control Specific Binding (Mean n=2) [5]
-6.3%: % Inhibition of Control Specific Binding (Mean n=2) [3]
9.3%: % Inhibition of Control Specific Binding (Mean n=2) [2]
inactive: residual activity [7] 100% | residual activity [8] 100% | residual activity [9] 100% | residual activity [10] 68% | residual activity [11] 84% | residual activity [12] 91% | residual activity [13] 91% | residual activity [14] 82% | residual activity [15] 90% | residual activity [16] 87% | residual activity [17] 93% | residual activity [18] 100% | residual activity [19] 82% | residual activity [20] 89% | residual activity [21] 92% | residual activity [22] 100% | residual activity [23] 100% | residual activity [24] 77% | residual activity [25] 93% | residual activity [26] 75% | residual activity [27] 97% | residual activity [28] 100% | residual activity [29] 100% | residual activity [30] 82% | residual activity [31] 100% | residual activity [32] 100% | residual activity [33] 100% | residual activity [34] 100% | residual activity [35] 78% | residual activity [36] 81% | residual activity [37] 85% | residual activity [38] 94% | residual activity [39] 96% | residual activity [40] 92% | residual activity [41] 57% | residual activity [42] 100% | inhibition [43] 4.36%
29.7%: inhibition at 120 min, 10 µM [4]
-1.1%: inhibition at 60 min, 10 µM [1]

COc1ccc2c(c1)O[C@H](c1ccc(OC)c(OC)c1)C[C@@H]2NC(=O)C1(c2ccc3c(c2)OC(F)(F)O3)CC1 [A-1596584]
inactive: residual activity [7] 63% | residual activity [8] 100% | residual activity [9] 100% | residual activity [10] 92% | residual activity [11] 100% | residual activity [12] 100% | residual activity [13] 96% | residual activity [14] 83% | residual activity [15] 92% | residual activity [16] 100% | residual activity [17] 88% | residual activity [18] 91% | residual activity [19] 100% | residual activity [20] 100% | residual activity [21] 100% | residual activity [22] 72% | residual activity [23] 98% | residual activity [24] 100% | residual activity [25] 100% | residual activity [26] 84% | residual activity [27] 100% | residual activity [29] 100% | residual activity [30] 93% | residual activity [31] 89% | residual activity [32] 100% | residual activity [33] 100% | residual activity [34] 100% | residual activity [35] 88% | residual activity [36] 91% | residual activity [37] 100% | residual activity [38] 87% | residual activity [39] 98% | residual activity [40] 70% | residual activity [41] 100% | residual activity [42] 100% | inhibition [43] 6.1%
7%: % Inhibition of Control Specific Binding (Mean n=2) [6]
-6.4%: % Inhibition of Control Specific Binding (Mean n=2) [3]
active: residual activity [28] 39%
18.2%: % Inhibition of Control Specific Binding (Mean n=2) [5]
6.4%: inhibition at 60 min, 10 µM [1]
13.1%: % Inhibition of Control Specific Binding (Mean n=2) [2]
-7.6%: inhibition at 120 min, 10 µM [4]
